From ChEMBL document CHEMBL5665443, “Enzyme Inhibitor Single Concentration assay results for EUbOPEN Chemogenomics Library” (2024)
Where “and” joins values, the source holds several entries; their conditions need not be identical. Equal entries are not always repeated.

Tests used:
Settings in all cases: Compound Concentration 10.0 uM, Hit No
[1] = biological target: G/T mismatch-specific thymine DNA glycosylase (Homo sapiens) (UniProt Q13569);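 note: human TDG cleavage of quenched duplex DNA oligonucleotides coupled to APE1, strand release read as fluorescence at 594 nm, inhibition of TDG activity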
Description: Inhibition of TDG by quantifying inhibition of TDG-mediated cleavage and dissociation of quenched duplex DNA oligonucleotides, measured as fluorescence at 594 nm. To generate a functional strand incision and increase turn-over this assay is coupled to APE1.

[2] = biological target: DNA-3-methyladenine glycosylase (Homo sapiens) (UniProt P29372);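 note: enzyme assay where MPG cuts a quenched duplex DNA oligonucleotide probe, paired with APE1 for strand incision and turnover, read as fluorescence at 594 nm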
Description: Inhibition of MPG by quantifying inhibition of MPG-mediated cleavage and dissociation of quenched duplex DNA oligonucleotides, measured as fluorescence at 594 nm. To generate a functional strand incision and increase turn-over this assay is coupled to APE1.

[3] = biological target: T1, Endonuclease 8-like 2 (Homo sapiens) (UniProt Q969S2);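 note: fluorescence at 594 nm reports NEIL2 cutting and release of a quenched double-stranded DNA oligo substrate, reduced signal read as inhibition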
T1 sequence (whole entry): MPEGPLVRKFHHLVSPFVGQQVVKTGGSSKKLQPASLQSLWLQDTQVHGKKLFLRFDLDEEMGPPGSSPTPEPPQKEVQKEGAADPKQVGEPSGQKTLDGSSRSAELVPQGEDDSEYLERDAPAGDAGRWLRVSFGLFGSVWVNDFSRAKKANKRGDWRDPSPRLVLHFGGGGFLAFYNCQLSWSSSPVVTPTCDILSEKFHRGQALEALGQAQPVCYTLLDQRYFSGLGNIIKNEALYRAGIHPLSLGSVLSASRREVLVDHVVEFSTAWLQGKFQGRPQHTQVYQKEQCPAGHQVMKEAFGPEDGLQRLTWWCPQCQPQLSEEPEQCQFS
Description: Inhibition of NEIL2 by quantifying inhibition of NEIL2-mediated cleavage and dissociation of quenched duplex DNA oligonucleotides, measured as fluorescence at 594 nm.

[4] = biological target: T2, Adenine DNA glycosylase (Homo sapiens) (UniProt Q9UIF7);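 note: human MUTYH activity read as 594 nm fluorescence from cleavage and release of a quenched DNA duplex, coupled with APE1 for strand incision, lower signal meaning inhibition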
T2 sequence (whole entry): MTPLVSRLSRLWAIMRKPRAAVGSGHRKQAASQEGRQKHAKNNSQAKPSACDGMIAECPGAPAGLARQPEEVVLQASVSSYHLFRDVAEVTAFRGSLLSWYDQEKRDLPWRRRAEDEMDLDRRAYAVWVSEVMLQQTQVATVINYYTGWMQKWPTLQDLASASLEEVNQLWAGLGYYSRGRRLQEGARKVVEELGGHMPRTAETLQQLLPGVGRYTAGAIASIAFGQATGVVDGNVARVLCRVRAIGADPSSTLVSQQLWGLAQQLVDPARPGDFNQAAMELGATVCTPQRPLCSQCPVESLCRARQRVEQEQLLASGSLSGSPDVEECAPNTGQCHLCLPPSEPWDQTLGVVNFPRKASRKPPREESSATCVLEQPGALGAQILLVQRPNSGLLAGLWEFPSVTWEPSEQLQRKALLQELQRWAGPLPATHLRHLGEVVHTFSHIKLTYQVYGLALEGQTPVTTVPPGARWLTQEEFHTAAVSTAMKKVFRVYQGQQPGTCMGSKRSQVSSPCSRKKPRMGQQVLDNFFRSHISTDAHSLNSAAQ
Description: Inhibition of MUTYH by quantifying inhibition of MUTYH-mediated cleavage and dissociation of quenched duplex DNA oligonucleotides, measured as fluorescence at 594 nm. To generate a functional strand incision and increase turn-over this assay is coupled to APE1.

[5] = biological target: Endonuclease 8-like 1 (Homo sapiens) (UniProt Q96FI4);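 note: fluorescence at 594 nm from quenched duplex DNA oligonucleotides released by NEIL1 cleavage and strand separation, reported as reduction of this enzyme activity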
Description: Inhibition of NEIL1 by quantifying inhibition of NEIL1-mediated cleavage and dissociation of quenched duplex DNA oligonucleotides, measured as fluorescence at 594 nm.

[6] = biological target: N-glycosylase/DNA lyase (Homo sapiens) (UniProt O15527);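 note: OGG1 cleavage of a quenched duplex DNA oligonucleotide, coupled to APE1 for strand incision, read as fluorescence at 594 nm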
Description: Inhibition of OGG1 by quantifying inhibition of OGG1-mediated cleavage and dissociation of quenched duplex DNA oligonucleotides, measured as fluorescence at 594 nm. To generate a functional strand incision and increase turn-over this assay is coupled to APE1.

[7] = biological target: Methyl-CpG-binding domain protein 4 (Homo sapiens) (UniProt O95243);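 note: MBD4 activity read as fluorescence at 594 nm from cleavage and release of a quenched duplex DNA oligonucleotide, with APE1 coupled to incise the strand and raise turnover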
Description: Inhibition of MBD4 by quantifying inhibition of MBD4-mediated cleavage and dissociation of quenched duplex DNA oligonucleotides, measured as fluorescence at 594 nm. To generate a functional strand incision and increase turn-over this assay is coupled to APE1.

[8] = biological target: Uracil-DNA glycosylase (Homo sapiens) (UniProt P13051);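 note: UNG excision on a quenched double-stranded DNA oligo probe, with APE1 added for strand incision and turnover, read as fluorescence at 594 nm as strands separate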
Description: Inhibition of UNG by quantifying inhibition of UNG-mediated cleavage and dissociation of quenched duplex DNA oligonucleotides, measured as fluorescence at 594 nm. To generate a functional strand incision and increase turn-over this assay is coupled to APE1.

[9] = biological target: T3, Single-strand selective monofunctional uracil DNA glycosylase (Homo sapiens) (UniProt Q53HV7);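 note: enzymatic SMUG1 assay coupled with APE1, reading fluorescence at 594 nm released when a quenched double-stranded DNA oligonucleotide substrate is cleaved and separated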
T3 sequence (whole entry): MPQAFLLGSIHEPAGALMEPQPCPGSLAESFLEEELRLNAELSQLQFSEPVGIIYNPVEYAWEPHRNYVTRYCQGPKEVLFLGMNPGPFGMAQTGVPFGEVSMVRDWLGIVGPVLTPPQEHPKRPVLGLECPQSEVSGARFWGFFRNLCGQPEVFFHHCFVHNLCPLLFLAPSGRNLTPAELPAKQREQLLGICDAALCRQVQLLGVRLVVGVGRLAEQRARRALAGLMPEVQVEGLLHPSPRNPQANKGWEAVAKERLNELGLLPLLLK
Description: Inhibition of SMUG1 by quantifying inhibition of SMUG1-mediated cleavage and dissociation of quenched duplex DNA oligonucleotides, measured as fluorescence at 594 nm. To generate a functional strand incision and increase turn-over this assay is coupled to APE1.

[10] = biological target: T4, Endonuclease III-like protein 1 (Homo sapiens) (UniProt P78549);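 note: enzyme assay tracking NTHL1 cutting and release of a quenched double-stranded DNA oligo substrate, read as fluorescence at 594 nm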
T4 sequence (whole entry): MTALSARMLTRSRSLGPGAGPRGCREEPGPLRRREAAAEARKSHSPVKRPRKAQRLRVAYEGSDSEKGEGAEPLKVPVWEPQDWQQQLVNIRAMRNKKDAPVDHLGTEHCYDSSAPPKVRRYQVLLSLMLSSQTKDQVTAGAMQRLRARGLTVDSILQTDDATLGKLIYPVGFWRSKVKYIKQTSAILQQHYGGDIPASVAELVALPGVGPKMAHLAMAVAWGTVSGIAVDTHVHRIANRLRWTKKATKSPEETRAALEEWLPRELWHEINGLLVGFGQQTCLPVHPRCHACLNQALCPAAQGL
Description: Inhibition of NTHL1 by quantifying inhibition of NTHL1-mediated cleavage and dissociation of quenched duplex DNA oligonucleotides, measured as fluorescence at 594 nm.

Chain of Methyl-CpG-binding domain protein 4 (Homo sapiens) (O95243 whole entry, the tested form may be a part): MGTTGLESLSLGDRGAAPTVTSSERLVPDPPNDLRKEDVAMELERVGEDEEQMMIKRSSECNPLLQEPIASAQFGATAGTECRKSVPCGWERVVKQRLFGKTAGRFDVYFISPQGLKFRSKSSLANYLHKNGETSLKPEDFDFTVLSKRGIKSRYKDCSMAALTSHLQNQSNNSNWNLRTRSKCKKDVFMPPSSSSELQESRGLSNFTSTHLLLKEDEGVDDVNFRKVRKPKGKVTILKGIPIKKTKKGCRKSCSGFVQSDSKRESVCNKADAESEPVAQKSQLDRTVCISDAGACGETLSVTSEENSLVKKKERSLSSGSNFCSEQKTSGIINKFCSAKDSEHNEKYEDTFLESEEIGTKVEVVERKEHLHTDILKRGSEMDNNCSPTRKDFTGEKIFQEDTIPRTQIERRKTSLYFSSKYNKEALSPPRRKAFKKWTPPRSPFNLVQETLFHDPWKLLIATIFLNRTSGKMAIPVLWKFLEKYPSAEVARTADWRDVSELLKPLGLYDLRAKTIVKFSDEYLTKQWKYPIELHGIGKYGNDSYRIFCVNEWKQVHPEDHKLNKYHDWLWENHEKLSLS
Chain of DNA-3-methyladenine glycosylase (Homo sapiens) (P29372 whole entry): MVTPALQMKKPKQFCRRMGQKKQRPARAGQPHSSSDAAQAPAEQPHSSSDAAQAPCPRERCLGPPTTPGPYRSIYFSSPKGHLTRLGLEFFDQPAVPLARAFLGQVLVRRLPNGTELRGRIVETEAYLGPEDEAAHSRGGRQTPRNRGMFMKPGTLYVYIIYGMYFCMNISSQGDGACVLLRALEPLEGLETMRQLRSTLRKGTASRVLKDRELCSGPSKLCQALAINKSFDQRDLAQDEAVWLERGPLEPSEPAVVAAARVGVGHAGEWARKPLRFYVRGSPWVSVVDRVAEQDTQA
Chain of G/T mismatch-specific thymine DNA glycosylase (Homo sapiens) (Q13569 whole entry): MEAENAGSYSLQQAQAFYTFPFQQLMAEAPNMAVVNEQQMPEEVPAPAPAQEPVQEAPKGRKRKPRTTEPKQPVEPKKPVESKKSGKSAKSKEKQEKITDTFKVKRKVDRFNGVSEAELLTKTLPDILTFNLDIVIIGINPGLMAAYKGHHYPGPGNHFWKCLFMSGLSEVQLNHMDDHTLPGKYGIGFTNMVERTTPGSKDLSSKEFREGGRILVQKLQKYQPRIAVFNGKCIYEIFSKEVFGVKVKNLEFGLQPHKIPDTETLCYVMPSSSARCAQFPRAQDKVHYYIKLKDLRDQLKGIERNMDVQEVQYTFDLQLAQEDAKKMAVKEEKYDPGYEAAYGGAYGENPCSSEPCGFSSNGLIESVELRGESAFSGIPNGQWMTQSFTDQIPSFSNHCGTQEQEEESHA
Chain of N-glycosylase/DNA lyase (Homo sapiens) (O15527 whole entry, the tested form may be a part): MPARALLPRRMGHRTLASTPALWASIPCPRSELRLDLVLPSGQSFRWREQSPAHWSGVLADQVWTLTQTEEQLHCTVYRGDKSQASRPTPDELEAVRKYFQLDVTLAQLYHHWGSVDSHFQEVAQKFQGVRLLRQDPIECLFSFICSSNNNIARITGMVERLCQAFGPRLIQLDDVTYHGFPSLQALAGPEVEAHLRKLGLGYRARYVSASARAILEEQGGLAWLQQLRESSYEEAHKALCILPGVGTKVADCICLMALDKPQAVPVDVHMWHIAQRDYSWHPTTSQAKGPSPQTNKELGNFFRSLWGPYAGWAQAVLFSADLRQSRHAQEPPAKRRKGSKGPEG
Chain of Uracil-DNA glycosylase (Homo sapiens) (P13051 whole entry): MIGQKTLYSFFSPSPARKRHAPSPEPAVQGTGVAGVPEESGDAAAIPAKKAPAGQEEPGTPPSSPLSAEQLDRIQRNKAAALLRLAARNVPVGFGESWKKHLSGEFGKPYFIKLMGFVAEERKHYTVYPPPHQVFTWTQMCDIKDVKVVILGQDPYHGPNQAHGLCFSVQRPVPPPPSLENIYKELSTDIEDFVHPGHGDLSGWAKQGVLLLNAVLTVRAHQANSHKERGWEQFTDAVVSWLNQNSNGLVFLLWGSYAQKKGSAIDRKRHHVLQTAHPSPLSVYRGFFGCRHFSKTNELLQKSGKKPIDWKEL
Chain of Endonuclease 8-like 1 (Homo sapiens) (Q96FI4 whole entry): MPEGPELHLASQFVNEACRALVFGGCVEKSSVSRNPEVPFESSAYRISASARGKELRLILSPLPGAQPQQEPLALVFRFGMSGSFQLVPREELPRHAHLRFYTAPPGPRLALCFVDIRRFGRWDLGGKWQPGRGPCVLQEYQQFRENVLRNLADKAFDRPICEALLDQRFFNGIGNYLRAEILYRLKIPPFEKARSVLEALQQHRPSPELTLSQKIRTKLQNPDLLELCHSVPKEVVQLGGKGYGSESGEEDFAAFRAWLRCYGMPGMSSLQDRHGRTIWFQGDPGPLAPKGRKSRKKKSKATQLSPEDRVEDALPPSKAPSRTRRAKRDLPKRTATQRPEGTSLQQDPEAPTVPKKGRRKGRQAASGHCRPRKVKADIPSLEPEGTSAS

SMILES | inhibition [1] [%] | inhibition [2] [%] | inhibition [3] | inhibition [4] | inhibition [5] | inhibition [6] | inhibition [7] [%] | inhibition [8] | inhibition [9] | inhibition [10] [%]
Clc1cccc(Cl)c1NC1=NCCN1 | 0.825 | -5.72 | 1.76% | 14.7% | -1.69% | -5.49% | – | – | – | –
CCC[C@H](Oc1cc(C)c(-n2cc(C(F)(F)F)cn2)c(C)c1)c1ccc(C(=O)NCCC(=O)O)cc1 | 24.9 | -2.83 | 6.5% | 39.2% | 4.69% | 8.48% | 19.8 | – | – | –
COCCCN1CCC(NC(=O)c2cc(Cl)c(N)c3c2OCC3)CC1 | 2.17 | 8.09 | -0.983% | 17.3% | -6.73% | -3.13% | – | – | – | –
CNC[C@H](O)c1ccc(O)c(O)c1 | 37.5 | 10.2 | – | 28.8% | 9.88% | 30.3% | 46.8 | – | – | –
CCc1nc2c(C)cc(C)nc2[nH]1 | -2.03 | 5.35 | 6.75% | -7.66% | 2.46% | – | – | – | – | –
CCC(=N\O)/C(C)=C/c1ccc(F)cc1 | – | 12.6 | -6.1% and 1.43% | -8.19% and -8.38% | 0.164% and -0.139% | 8.29% and 3.66% | – | -0.0369% and -2.61% | 15.6% and 4.45% | –
CCCn1c(=O)c2[nH]c(-c3ccc(OCC(=O)Nc4ccc(C#N)cc4)cc3)nc2n(CCC)c1=O | 1.64 | -6.3 | – | -3.95% | – | -7.63% | – | -6.42% | – | –
NC(CCP(=O)(O)O)C(=O)O (racemic) | 24.4 | -3.6 | -9.22% | – | 0.0927% | -1.26% | 6.95 | -6.54% | 10.5% | 2.66
CN1CCN2c3ncccc3Cc3ccccc3C2C1 (stereo not drawn) | -8.16 | -7.53 | 10% | -2.92% | 3.95% | -6.38% | – | – | – | –
Nc1nc(NCCc2ccc(O)cc2)nc2nc(-c3ccco3)nn12 | -0.119 | -1.9 | 6% | 18.6% | -1.69% | -7.81% | – | – | -6.72% | –
O=c1ccn([C@@H]2O[C@H](COP(=O)(O)OP(=O)(O)O)[C@@H](O)[C@H]2O)c(=O)[nH]1 | 19.1 | -2.06 | 2.51% | 23.4% | -1.39% | -4.12% | – | -4.06% | – | –
c1ccc(NCc2ccc(CNc3ccccn3)cc2)nc1 | 13.4 | -3.14 | -4.48% | -5.87% | 3.5% | -3.65% | – | – | – | –
Clc1ccc2nsnc2c1NC1=NCCN1 | 12 | 6.04 | 0.515% | -8.81% | -3.76% | -1.01% | – | -7.76% | 2.87% | –
CCOC(=O)c1cnn(-c2ccc(NC(=O)C(Cl)=C(Cl)Cl)cc2)c1C(F)(F)F | 5.37 | 17.3 | 2.71% | – | -3.99% | -2.43% | 1.57 | 2.51% | 15% | 8
N[C@H](C(=O)O)c1ccc(C(=O)O)c(C(=O)O)c1 | 4.6 | -6.3 | 5.76% | 10.4% | -4.06% | -7.96% | – | – | -4.49% | –
Cc1cccc(NC(=O)N[C@@H]2N=C(c3ccccc3)c3ccccc3N(C)C2=O)c1 | 12.3 | 17 | -1.73% | 10.5% | – | -6.8% | – | – | -5.61% | –
Cc1cnc(CNCC2(F)CCN(C(=O)c3ccc(F)c(Cl)c3)CC2)nc1 | 6.93 | 6.04 | 7.5% | -3.43% | 2.32% | -1.55% | – | -8.07% | -8.17% | –
Cc1cc(C(C)(C)C)c(O)c(C)c1CC1=NCCN1 | 10.8 | 3.54 | 19% | – | 8.25% | -1.82% | -7.05 | -7.32% | -3.38% | 1.92
Cc1onc(-c2ccccc2Cl)c1C(=O)N(C)c1ccc(Cl)cc1 | 12.4 | -3.37 | 7% | 15.8% | -2.13% | -3.42% | – | -8.91% | 3.65% | –
CC(C)(C)c1ccc(S(=O)(=O)Nc2ccc(Cl)cc2C(=O)c2cc[n+]([O-])cc2)cc1 | -0.448 | 1.3 | -0.483% | -4.97% | 3.35% | 1.79% | – | – | – | –
CC(C)NCC(O)COc1cccc2[nH]ccc12 (stereo not drawn) | 3.97 | 6.08 | 4.01% | -5.48% | 2.76% | -5.87% | – | -6.49% | – | –
CC(C)Cc1ccc([C@@H](C)C(=O)NS(C)(=O)=O)cc1 | 3.68 | -0.553 | -1.98% | 19% | 1.28% | -2.17% | – | -7.7% | 0.354% | –
CCOC(=O)C1=C[C@]2(CC)CCCN3CCc4c(n1c1ccccc41)[C@@H]32 | -4.28 | -4.56 | 6.02% | – | 2.53% | -8.62% | -4.24 | -5.08% | 1% | 18.7
CN(C)C(=O)N[C@H]1CC[C@H](CCN2CCN(c3cccc(Cl)c3Cl)CC2)CC1 | 14.4 | -7.07 | 10.2% | – | -4.8% | 1.62% | -1.19 | -3.02% | 1.03% | 2.66
OC(CN1CCC(Cc2ccc(F)cc2)CC1)c1ccc(Cl)cc1 (stereo not drawn) | -8.99 | 4.63 | -7.99% | – | 0.602% | -4.77% | -0.39 | -7.04% | -3.86% | 8.82
CCOC(=O)c1ncn2c1CN(C)C(=O)c1cc(F)ccc1-2 | 9.02 | -3.91 | -1.48% | – | 0.389% | 0.398% | -4.21 | -9.3% | -0.518% | -6.87
Cn1c(=O)n(CCCO)c(=O)c2c1nc(Oc1cccc(OC(F)(F)F)c1)n2Cc1ccc(Cl)cc1 | 19.9 | 13.8 | -7.23% | – | -2.66% | -1.67% | 26.6 | -4.54% | 10.3% | 8.82
